The source of these data is patent publication US9150575B2, “Piperidinylpyrazolopyridine derivative” (Daiichi Sankyo Company, Limited, priority 2012, dated 2015).

In the assay the target is T1, LCAT (Homo sapiens, UniProt P04180).
T1 construct: The obtained fraction was dialyzed against phosphate-buffered saline (pH 7.4) and used as an enzyme source and an acceptor for LCAT; from tissue; host or cells: HDL3 fraction (1.125<specific gravity<1.210 g/mL) of plasma from a healthy person
T1 sequence (P04180 25-440): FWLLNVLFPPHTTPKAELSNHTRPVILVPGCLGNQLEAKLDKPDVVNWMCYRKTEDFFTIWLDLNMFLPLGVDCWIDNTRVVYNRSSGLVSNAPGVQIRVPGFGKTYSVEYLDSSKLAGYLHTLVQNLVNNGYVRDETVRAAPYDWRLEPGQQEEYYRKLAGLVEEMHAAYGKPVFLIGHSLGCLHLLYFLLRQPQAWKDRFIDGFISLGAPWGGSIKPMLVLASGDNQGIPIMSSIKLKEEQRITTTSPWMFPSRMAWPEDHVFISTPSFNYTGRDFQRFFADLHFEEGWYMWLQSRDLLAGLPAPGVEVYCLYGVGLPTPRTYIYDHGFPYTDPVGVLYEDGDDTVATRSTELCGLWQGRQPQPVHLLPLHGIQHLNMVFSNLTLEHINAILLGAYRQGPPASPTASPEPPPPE
The experiment in a line: LCAT Activity Measurement (In Vitro). In kind it is biochemical. The conditions noted are these: EC50 of LCAT activation; HDL3 fraction from plasma of a healthy person as enzyme source and acceptor; [14C]cholesterol; 37° C., approximately 16 hours. In a few lines: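 Human plasma HDL3 (1 mg/mL, PBS pH 7.4) served as enzyme and acceptor with [14C]cholesterol, 0.5 mM DTNB, 12.5 mM mercaptoethanol and 0.6% BSA; compounds in DMSO, incubated ~16 h at 37 °C. Cholesterol oleate radioactivity quantified after extraction and TLC; EC50 of activation fitted relative to no-drug control.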

In turn, `COC(=O)c1nc(N2CCC(c3n[nH]c4c3C(O)(C(F)(F)F)CC(=O)N4)CC2)ccc1C(F)(F)F` (stereo not shown) [Example 77, Methyl 6-{4-[4-hydroxy-6-oxo-4-(trifluoromethyl)-4,5,6,7-tetrahydro-1H-pyrazolo[3,4-b]pyridin-3-yl]piperidin-1-yl}-3-(trifluoromethyl)pyridine-2-carboxylate] returned an EC50 of 58 nM.
Turning to `N#Cc1cnc(N2CCC(c3n[nH]c4c3C(O)(C(F)(F)F)CC(=O)N4)CC2)cn1` (stereo not shown) [Example 78, 5-{4-[4-Hydroxy-6-oxo-4-(trifluoromethyl)-4,5,6,7-tetrahydro-1H-pyrazolo[3,4-b]pyridin-3-yl]piperidin-1-yl}pyrazine-2-carbonitrile], the EC50 stood at 220 nM.
Consider `O=C1CC(O)(C(F)(F)F)c2c(C3CCN(c4ccnc(C(F)(F)F)n4)CC3)n[nH]c2N1` (stereo not shown) [Example 79, 4-Hydroxy-4-(trifluoromethyl)-3-{1-[2-(trifluoromethyl)pyrimidin-4-yl]piperidin-4-yl}-1,4,5,7-tetrahydro-6H-pyrazolo[3,4-b]pyridin-6-one], for which the EC50 was found to be 300 nM.
To `O=C1CC(O)(C(F)(F)F)c2c(C3CCN(c4nccc(C(F)(F)F)n4)CC3)n[nH]c2N1` (stereo not shown) [Example 80, 4-Hydroxy-4-(trifluoromethyl)-3-{1-[4-(trifluoromethyl)pyrimidin-2-yl]piperidin-4-yl}-1,4,5,7-tetrahydro-6H-pyrazolo[3,4-b]pyridin-6-one] belongs 380 nM; to `N#Cc1cnc(N2CCC(c3n[nH]c4c3C(O)(C(F)(F)F)CC(=O)N4)CC2)s1` (stereo not shown) [Example 81, 2-{4-[4-Hydroxy-6-oxo-4-(trifluoromethyl)-4,5,6,7-tetrahydro-1H-pyrazolo[3,4-b]pyridin-3-yl]piperidin-1-yl}-1,3-thiazole-5-carbonitrile], 470 nM; to `COC(=O)c1cc(N2CCC(c3n[nH]c4c3C(O)(C(F)(F)F)CC(=O)N4)CC2)ncc1C(F)(F)F` (stereo not shown) [Example 82, Methyl 2-{4-[4-hydroxy-6-oxo-4-(trifluoromethyl)-4,5,6,7-tetrahydro-1H-pyrazolo[3,4-b]pyridin-3-yl]piperidin-1-yl}-5-(trifluoromethyl)pyridine-4-carboxylate], 32 nM.
To `CN(C)C(=O)c1nc(N2CCC(c3n[nH]c4c3C(O)(C(F)(F)F)CC(=O)N4)CC2)ccc1C(F)(F)F` (stereo not shown) [Example 83, 6-{4-[4-Hydroxy-6-oxo-4-(trifluoromethyl)-4,5,6,7-tetrahydro-1H-pyrazolo[3,4-b]pyridin-3-yl]piperidin-1-yl}-N,N-dimethyl-3-(trifluoromethyl)pyridine-2-carboxamide] belongs 420 nM; to `CN(C)C(=O)c1cc(N2CCC(c3n[nH]c4c3C(O)(C(F)(F)F)CC(=O)N4)CC2)ncc1C(F)(F)F` (stereo not shown) [Example 84, 2-{4-[4-Hydroxy-6-oxo-4-(trifluoromethyl)-4,5,6,7-tetrahydro-1H-pyrazolo[3,4-b]pyridin-3-yl]piperidin-1-yl}-N,N-dimethyl-5-(trifluoromethyl)pyridine-4-carboxamide], 270 nM; to `O=C1CC(O)(C(F)(F)F)c2c(C3CCN(c4cc(C(=O)OCc5ccccc5)c(C(F)(F)F)cn4)CC3)n[nH]c2N1` (stereo not shown) [Example 85, Benzyl 2-[4-(4-hydroxy-6-oxo-4-(trifluoromethyl)-4,5,6,7-tetrahydro-1H-pyrazolo[3,4-b]pyridin-3-yl)piperidin-1-yl]-5-(trifluoromethyl)pyridine-4-carboxylate], 13 nM.
The same measure for `CN(C)c1cc(N2CCC(c3n[nH]c4c3C(O)(C(F)(F)F)CC(=O)N4)CC2)nc(C(F)(F)F)n1` (stereo not shown) [Example 86, 3-{1-[6-(Dimethylamino)-2-(trifluoromethyl)pyrimidin-4-yl]piperidin-4-yl}-4-hydroxy-4-(trifluoromethyl)-1,4,5,7-tetrahydro-6H-pyrazolo[3,4-b]pyridin-6-one]: 140 nM; for `Cc1nc(N2CCC(c3n[nH]c4c3C(O)(C(F)(F)F)CC(=O)N4)CC2)cc(C(F)(F)F)n1` (stereo not shown) [Example 87, 4-Hydroxy-3-{1-[2-methyl-6-(trifluoromethyl)pyrimidin-4-yl]piperidin-4-yl}-4-(trifluoromethyl)-1,4,5,7-tetrahydro-6H-pyrazolo[3,4-b]pyridin-6-one]: 300 nM; for `CC(C)c1nc(N2CCC(c3n[nH]c4c3C(O)(C(F)(F)F)CC(=O)N4)CC2)cc(C(F)(F)F)n1` (stereo not shown) [Example 88, 4-Hydroxy-3-{1-[2-(propan-2-yl)-6-(trifluoromethyl)pyrimidin-4-yl]piperidin-4-yl}-4-(trifluoromethyl)-1,4,5,7-tetrahydro-6H-pyrazolo[3,4-b]pyridin-6-one]: 88 nM.
The molecule `O=C1CC(O)(C(F)(F)F)c2c(C3CCN(c4ncc(-c5ccccc5)s4)CC3)n[nH]c2N1` (stereo not shown) [Example 89, 4-Hydroxy-3-[1-(5-phenyl-1,3-thiazol-2-yl)piperidin-4-yl]-4-(trifluoromethyl)-1,4,5,7-tetrahydro-6H-pyrazolo[3,4-b]pyridin-6-one] displayed an EC50 of 110 nM.
In turn, `O=C1CC(O)(C(F)(F)F)c2c(C3CCN(c4nc(-c5ccccc5)cs4)CC3)n[nH]c2N1` (stereo not shown) [Example 90, 4-Hydroxy-3-[1-(4-phenyl-1,3-thiazol-2-yl)piperidin-4-yl]-4-(trifluoromethyl)-1,4,5,7-tetrahydro-6H-pyrazolo[3,4-b]pyridin-6-one] yielded an EC50 of 310 nM.
Turning to `CCOC(=O)c1oc(N2CCC(c3n[nH]c4c3C(O)(C(F)(F)F)CC(=O)N4)CC2)nc1C(F)(F)F` (stereo not shown) [Example 91, Ethyl 2-{4-[4-hydroxy-6-oxo-4-(trifluoromethyl)-4,5,6,7-tetrahydro-1H-pyrazolo[3,4-b]pyridin-3-yl]piperidin-1-yl}-4-(trifluoromethyl)-1,3-oxazole-5-carboxylate], the EC50 was 77 nM.
To `O=C1CC(O)(C(F)(F)F)c2c(C3CCN(c4cc(C(F)(F)F)nc(C5CC5)n4)CC3)n[nH]c2N1` (stereo not shown) [Example 92, 3-{1-[2-Cyclopropyl-6-(trifluoromethyl)pyrimidin-4-yl]piperidin-4-yl}-4-hydroxy-4-(trifluoromethyl)-1,4,5,7-tetrahydro-6H-pyrazolo[3,4-b]pyridin-6-one] belongs 210 nM; to `CN(C)c1nc(N2CCC(c3n[nH]c4c3C(O)(C(F)(F)F)CC(=O)N4)CC2)cc(C(F)(F)F)n1` (stereo not shown) [Example 93, 3-{1-[2-(Dimethylamino)-6-(trifluoromethyl)pyrimidin-4-yl]piperidin-4-yl}-4-hydroxy-4-(trifluoromethyl)-1,4,5,7-tetrahydro-6H-pyrazolo[3,4-b]pyridin-6-one], 84 nM.
To `N#Cc1nc(N2CCC(c3n[nH]c4c3C(O)(C(F)(F)F)CC(=O)N4)CC2)ccc1C(F)(F)F` (stereo not shown) [Example 94, 6-{4-[4-Hydroxy-6-oxo-4-(trifluoromethyl)-4,5,6,7-tetrahydro-1H-pyrazolo[3,4-b]pyridin-3-yl]piperidin-1-yl}-3-(trifluoro)pyridine-2-carbonitrile] belongs 15 nM; to `N#Cc1cnc(N2CCC(c3n[nH]c4c3C(O)(C(F)(F)F)CC(=O)N4)CC2)cc1C(F)(F)F` (stereo not shown) [Example 95, 6-{4-[4-Hydroxy-6-oxo-4-(trifluoromethyl)-4,5,6,7-tetrahydro-1H-pyrazolo[3,4-b]pyridin-3-yl]piperidin-1-yl}-4-(trifluoromethyl)pyridine-3-carbonitrile], 37 nM.
